According to US12011497B2, “Compounds, compositions containing same, and use thereof for promoting hair growth” (Molgenbio Co. Ltd., priority 2018, dated 2024):
Values after ≈ are worked out from the molar mass of the structure shown.

Columns and labels:
[1] = system: CD4+ T cells; assay: in vitro T cell activity assay (CTV-stained CD4+ T cell proliferation, flow cytometry); format: cell-based; conditions: B6J mouse spleen CD4+ T cells activated with CD3/CD28 Dynabeads, 72 hours incubation, 0.01-1000 ng/mL, CTV intensity
Excerpt: The degrees of decreases in immunosuppressive activity of the nine novel compounds were identified by a known in vitro T cell activity assay (J. Immunol. 143:718-726, 1989).
CD4+ T cell division is an indicator of immune response. When CD4+ T cells stained with Cell Trace™ Violet (CTV) proliferate by immune responses, the amount of CTV of each cell decreases, and thus the degrees of immunosuppressive activity were identified using this as an indicator.
Single cells were isolated from spleen of 6- to 8-week-old B6J experimental mice, and CD4+ T cells were isolated using a MagniSort® Mouse CD4 T cell Enrichment Kit (eBioscience). CD4+ T cells were stained with a Cell Trace™ Violet (CTV) Cell Proliferation Kit (Molecular Probes), and FK506 or the nine novel compounds were added thereto in concentrations of 0.01 ng/mL, 0.1 ng/mL, 1 ng/mL, 10 ng/mL, 100 ng/mL, and 1000 ng/mL, respectively, followed by incubation for 72 hours. In order to activate T cells, Dynabeads® Mouse T-Activator CD3/CD28 (Gibco) was used. As a control, inactivated T cells were used. After incubation, CTV intensity was analyzed by flow cytometry.
Table 12 below and FIG. 55 show the degrees of T cell proliferation based on CTV intensities measured using a flow cytometer, indicating the degrees of immunosuppressive activity of FK506 and the nine novel compounds.

[2] = system: vibrissae tissue of mice; assay: hair growth-promoting activity in cultured isolated mouse vibrissae; format: cell-based; conditions: histology of cultured treated vibrissae, FIG. 58
Protocol: Hair growth-promoting activity of the nine novel compounds of the present invention relative to that of the parent drug (FK506) was evaluated using vibrissae tissue of mice. The mouth and mouth tissue (whisker pad) around the mouth where thick hair grows were peeled off from each of 6- to 8-week-old experimental black mouse (C57BL/6 mouse) and treated with […] for a short time of several seconds. The treated mouth tissue was prepared in a state of being immersed in phosphate-buffered saline (PBS) supplemented with 1% penicillin/streptomycin (P/S) on ice. Surrounding subcutaneous fat tissue and connective tissue were removed using forceps and blades while observing the prepared mouth tissue using a dissecting microscope to expose vibrissae tissue. […] Based on the results, it was confirmed that the composition for promoting hair growth, including at least one of the nine novel compounds of the present invention as an active ingredient, had the effects on promoting hair growth as desired, and thus it was determined that the composition may be effectively used for preventing and treating hair loss.

| Molecule | Immunosuppression IC50 [1] | expression of growth marker (Ki67) of cells compared to an untreated group [2] | IC50 ([1]; read-out: Immunosuppression IC50) |
| --- | --- | --- | --- |
| C=CC[C@@H]1/C=C(\C)C[C@H](C)C[C@H](OC)[C@H]2O[C@@](O)(CC(=O)N3CCCC[C@H]3C(=O)O[C@H](/C(C)=C/C3CC[C@@H](O)[C@H](OC)C3)[C@H](C)[C@H](O)CC1=O)[C@H](C)C[C@@H]2OC (stereo partly drawn) [9-deoxo-FK506, reference compound] | 0.513 ng/mL |  |  |
| CCC1C=C(C)CC(C)CC(OC)C2OC(O)(CC(=O)N3CCCCC3C(=O)OC(C(C)=CC3CCC(O)C(OC)C3)C(C)C(O)CC1=O)C(C)CC2OC (stereo not drawn) [9-deoxo-FK520] | 24.98 ng/mL |  |  |
| CC[C@@H]1/C=C(\C)C[C@H](C)C[C@H](OC)[C@H]2O[C@@](O)(CC(=O)N3CCCC[C@H]3C(=O)O[C@H](/C(C)=C/[C@@H]3CC[C@@H](O)[C@H](O)C3)[C@H](C)[C@@H](O)CC1=O)[C@H](C)C[C@@H]2OC [9-deoxo-31-O-demethyl-FK520] | 258.1 ng/mL | overexpressed |  |
| CCC[C@@H]1/C=C(\C)C[C@H](C)C[C@H](OC)[C@H]2O[C@@](O)(C(=O)C(=O)N3CCCC[C@H]3C(=O)O[C@H](/C(C)=C/[C@@H]3CC[C@@H](O)[C@H](O)C3)[C@H](C)[C@@H](O)CC1=O)[C@H](C)C[C@@H]2OC [31-O-demethyl-36,37-dihydro-FK506] | 1.723 ng/mL |  |  |
| C=CC[C@@H]1/C=C(/C)C[C@H](C)C[C@H](OC)[C@H]2O[C@@](O)(CC(=O)N3CCCC[C@H]3C(=O)O[C@H](/C(C)=C/[C@@H]3CC[C@@H](O)[C@H](O)C3)[C@H](C)[C@@H](O)CC1=O)[C@H](C)C[C@@H]2OC [9-deoxo-31-O-demethyl-FK506, reference compound] | 15.09 ng/mL |  |  |
| C=CC[C@@H]1/C=C(\C)C[C@H](C)C[C@H](OC)[C@H]2O[C@@](O)(C(=O)C(=O)N3CCCC[C@H]3C(=O)O[C@H](/C(C)=C/[C@@H]3CC[C@@H](O)[C@H](OC)C3)[C@H](C)[C@@H](O)CC1=O)[C@H](C)C[C@@H]2OC [FK506, reference compound] |  |  | 0.027 ng/mL (≈ 0.0336 nM) |
| COC1CC(C=C(C)C2OC(=O)C3CCCCN3C(=O)CC3(O)OC(C(OC)CC(C)CC(C)=CC(C)C(=O)CC(O)C2C)C(OC)CC3C)CCC1O (stereo not drawn) [9-deoxo-FK523] | 1985 ng/mL |  |  |
| 9-deoxo-prolyl-FK506 [reference compound] | 268.3 ng/mL |  |  |
| CC[C@@H]1/C=C(\C)C[C@H](C)C[C@H](OC)[C@H]2O[C@@](O)(C(=O)C(=O)N3CCCC[C@H]3C(=O)O[C@H](/C(C)=C/[C@@H]3CC[C@@H](O)[C@H](O)C3)[C@H](C)[C@@H](O)CC1=O)[C@H](C)C[C@@H]2OC [31-O-demethyl-FK520] | 3.273 ng/mL |  |  |
| CCCC1C=C(C)CC(C)CC(OC)C2OC(O)(CC(=O)N3CCCCC3C(=O)OC(C(C)=CC3CCC(O)C(OC)C3)C(C)C(O)CC1=O)C(C)CC2OC (stereo not drawn) [9-deoxo-36,37-dihydro-FK506] | 14.1 ng/mL |  |  |
| CO[C@H]1C[C@@H](C)C/C(C)=C/[C@@H](C)C(=O)C[C@H](O)[C@@H](C)[C@@H](/C(C)=C/[C@@H]2CC[C@@H](O)[C@H](O)C2)OC(=O)[C@@H]2CCCCN2C(=O)C[C@]2(O)O[C@H]1[C@@H](OC)C[C@H]2C [9-deoxo-31-O-demethyl-FK523] | 3378 ng/mL |  |  |
| 9-deoxo-31-O-demethyl-prolyl-FK506 | 886.5 ng/mL |  |  |
| C=CCC1/C=C(\C)CC(C)CC(OC)C2OC(O)(C(=O)C(=O)N3CCCCC3C(=O)OC(/C(C)=C/C3CCC(O)C(O)C3)C(C)C(O)CC1=O)C(C)CC2OC (stereo not drawn) [31-O-demethyl-FK506, reference compound] | 0.246 ng/mL |  |  |
| CCCC1C=C(C)CC(C)CC(OC)C2OC(O)(CC(=O)N3CCCCC3C(=O)OC(C(C)=CC3CCC(O)C(O)C3)C(C)C(O)CC1=O)C(C)CC2OC (stereo not drawn) [9-deoxo-31-O-demethyl-36,37-dihydro-FK506] | 45.87 ng/mL |  |  |
